Values of other authors, collected in patent US20230113077A1, “CONTROLLED RELEASE SELEXIPAG COMPOSITION” (ACTELION PHARMACEUTICALS LTD, priority 2020, published 2023).

Details: phase III clinical trial; patients with pulmonary arterial hypertension; selexipag versus placebo

## CC(C)N(CCCCOCC(=O)NS(C)(=O)=O)c1cnc(-c2ccccc2)c(-c2ccccc2)n1 [selexipag, 2-{4-[N-(5,6-diphenylpyrazin-2-yl)-N-isopropylamino]butyloxy}-N-(methylsulfonyl)acetamide]
  risk of the primary composite end point of death or a complication related to pulmonary arterial hypertension: significantly lower
